According to US7138361B2, “Herbicidal heterocycles” (E. I. du Pont de Nemours and Company, priority 2000, dated 2006):

Assays:
Type in all cases: in vivo
rice (Oryza saliva) [1] = assay: Test C flooded paddy test; conditions: for Rice plant response rating: scale 0 to 100, 0 no effect, 100 complete control
In short: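 2-leaf-stage plants, flooded paddy; treated; greenhouse 12–14 days; compared with controls by eye; rated 0–100 (0 none, 100 complete control).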

[2] = tested on: velvetleaf (Abutilon theophrasti); assay: Test B postemergence; conditions: 13 to 15 days
In short: (§1)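 Greenhouse test: chemicals are formulated in a surfactant-containing non-phytotoxic solvent and applied either preemergence to planted seeds or postemergence to plants 2 to 18 cm tall. Response is rated visually versus controls after 13 to 15 days, 0 meaning no effect and 100 complete control.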

[3] = tested on: wheat (Triticum aestivum); assay: Test B postemergence; conditions: 13 to 15 days
In short: as §1

[4] = tested on: lambsquarters (Chenopodium album); assay: Test B postemergence; conditions: 13 to 15 days
In short: as §1

[5] = tested on: crabgrass (Digitaria sanguinalis); assay: Test B postemergence; conditions: 13 to 15 days
In short: as §1

corn (Zea mays) [6] = assay: Test B postemergence; conditions: 13 to 15 days
In short: as §1

[7] = tested on: giant foxtail (Setaria faberii); assay: Test B postemergence; conditions: 13 to 15 days
In short: as §1

[8] = tested on: blackgrass (Alopecurus myosuroides); assay: Test B postemergence; conditions: 13 to 15 days
In short: as §1

[9] = tested on: morning glory (Ipomoea hederacea); assay: Test B postemergence; conditions: 13 to 15 days
In short: as §1

wild oat (Avena fatua) = assay: Test B postemergence; conditions: 13 to 15 days
In short: as §1

[10] = tested on: Surinam grass (Brachiaria decumbens); assay: Test B postemergence; conditions: 13 to 15 days
In short: as §1

[11] = tested on: cocklebur (Xanthium strumarium); assay: Test B postemergence; conditions: 13 to 15 days
In short: as §1

[12] = tested on: pigweed (Amaranthus retroflexus); assay: Test B postemergence; conditions: 13 to 15 days
In short: as §1

[13] = tested on: barnyardgrass (Echinochloa crus-galli); assay: Test B postemergence; conditions: 13 to 15 days
In short: as §1

[14] = tested on: velvetleaf (Abutilon theophrasti); assay: Test B preemergence; conditions: scale 0 to 100, 0 no effect, 100 complete control
In short: as §1

[15] = tested on: lambsquarters (Chenopodium album); assay: Test B preemergence; conditions: scale 0 to 100, 0 no effect, 100 complete control
In short: as §1

[16] = tested on: crabgrass (Digitaria sanguinalis); assay: Test B preemergence; conditions: scale 0 to 100, 0 no effect, 100 complete control
In short: as §1

corn (Zea mays) [17] = assay: Test B preemergence; conditions: scale 0 to 100, 0 no effect, 100 complete control
In short: as §1

[18] = tested on: giant foxtail (Setaria faberii); assay: Test B preemergence; conditions: scale 0 to 100, 0 no effect, 100 complete control
In short: as §1

rice (Oryza saliva) [19] = assay: Test B preemergence; conditions: scale 0 to 100, 0 no effect, 100 complete control
In short: as §1

[20] = tested on: morning glory (Ipomoea hederacea); assay: Test B preemergence; conditions: scale 0 to 100, 0 no effect, 100 complete control
In short: as §1

[21] = tested on: Surinam grass (Brachiaria decumbens); assay: Test B preemergence; conditions: scale 0 to 100, 0 no effect, 100 complete control
In short: as §1

[22] = tested on: cocklebur (Xanthium strumarium); assay: Test B preemergence; conditions: scale 0 to 100, 0 no effect, 100 complete control
In short: as §1

[23] = tested on: pigweed (Amaranthus retroflexus); assay: Test B preemergence; conditions: scale 0 to 100, 0 no effect, 100 complete control
In short: as §1

[24] = tested on: barnyardgrass (Echinochloa crus-galli); assay: Test B preemergence; conditions: scale 0 to 100, 0 no effect, 100 complete control
In short: as §1

[25] = flooded paddy test, Rate 62 g/ha, scale 0 to 100 (0 no effect, 100 complete control)
[26] = flooded paddy test, Rate 125 g/ha, scale 0 to 100 (0 no effect, 100 complete control)
[27] = Rate 125 g/ha, scale 0 (no effect) to 100 (complete control)
[28] = Rate 500 g/ha, scale 0 to 100, 0 is no effect, 100 is complete control

CC1CCc2cn(C3CCN(c4cccc(C(F)(F)F)c4)C3=O)nc21 (stereo not shown) [Compound 11]
20: Rice plant response rating (rice (Oryza saliva) [1]; Flooded Paddy, Rate 250 g/ha)
0: Plant response rating, Rice (rice (Oryza saliva) [1]; [25]) | Plant response rating, Rice (rice (Oryza saliva) [1]; [26]) | Plant response rating, Velvetleaf [2, 27] | Plant response rating, Velvetleaf [2, 28] | Plant response rating, Wheat [3, 27] | Plant response rating, Wheat [3, 28] | Plant response rating, Lambsquarters [4, 27] | Plant response rating, Lambsquarters [4, 28] | Plant response rating, Crabgrass [5, 27] | Plant response rating, Crabgrass [5, 28] | Plant response rating, Corn (corn (Zea mays) [6]; [27]) | Plant response rating, Corn (corn (Zea mays) [6]; [28]) | Plant response rating, Foxtail, Giant [7, 27] | Plant response rating, Foxtail, Giant [7, 28] | Plant response rating, Blackgrass [8, 27] | Plant response rating, Blackgrass [8, 28] | Plant response rating, Morningglory [9, 27] | Plant response rating, Morningglory [9, 28] | Plant response rating, Wild Oat (wild oat (Avena fatua); [27]) | Plant response rating, Wild Oat (wild oat (Avena fatua); [28]) | Plant response rating, Surinam grass [10, 27] | Plant response rating, Surinam grass [10, 28] | Plant response rating, Cocklebur [11, 27] | Plant response rating, Cocklebur [11, 28] | Plant response rating, Pigweed [12, 27] | Plant response rating, Pigweed [12, 28] | Plant response rating, Barnyardgrass [13, 27] | Plant response rating, Barnyardgrass [13, 28] | Plant response rating, Velvetleaf ([14]; Preemergence, Rate 500 g/ha) | Plant response rating, Velvetleaf ([14]; preemergence, Rate 125 g/ha) | Plant response rating, Lambsquarters ([15]; Preemergence, Rate 500 g/ha) | Plant response rating, Lambsquarters ([15]; preemergence, Rate 125 g/ha) | Plant response rating, Crabgrass ([16]; Preemergence, Rate 500 g/ha) | Plant response rating, Crabgrass ([16]; preemergence, Rate 125 g/ha) | Plant response rating, Corn (corn (Zea mays) [17]; Preemergence, Rate 500 g/ha) | Plant response rating, Corn (corn (Zea mays) [17]; preemergence, Rate 125 g/ha) | Plant response rating, Foxtail, Giant ([18]; Preemergence, Rate 500 g/ha) | Plant response rating, Foxtail, Giant ([18]; preemergence, Rate 125 g/ha) | Plant response rating, Rice (rice (Oryza saliva) [19]; Preemergence, Rate 500 g/ha) | Plant response rating, Rice (rice (Oryza saliva) [19]; preemergence, Rate 125 g/ha) | Plant response rating, Morningglory ([20]; Preemergence, Rate 500 g/ha) | Plant response rating, Morningglory ([20]; preemergence, Rate 125 g/ha) | Plant response rating, Surinam grass ([21]; Preemergence, Rate 500 g/ha) | Plant response rating, Surinam grass ([21]; preemergence, Rate 125 g/ha) | Plant response rating, Cocklebur ([22]; Preemergence, Rate 500 g/ha) | Plant response rating, Cocklebur ([22]; preemergence, Rate 125 g/ha) | Plant response rating, Pigweed ([23]; Preemergence, Rate 500 g/ha) | Plant response rating, Pigweed ([23]; preemergence, Rate 125 g/ha) | Plant response rating, Barnyardgrass ([24]; Preemergence, Rate 500 g/ha) | Plant response rating, Barnyardgrass ([24]; preemergence, Rate 125 g/ha)
30: Plant response rating, Rice (rice (Oryza saliva) [1]; Flooded Paddy, Rate 500 g/ha, scale 0 to 100)

CCC(C)c1ccn(C2OCN(c3cccc(C(F)(F)F)c3)C2=O)n1 (stereo not shown) [Compound 24]
0: Plant response rating, Rice (rice (Oryza saliva) [1]; [25]) | Plant response rating, Velvetleaf [2, 27] | Plant response rating, Velvetleaf [2, 28] | Plant response rating, Wheat [3, 27] | Plant response rating, Wheat [3, 28] | Plant response rating, Corn (corn (Zea mays) [6]; [27]) | Plant response rating, Blackgrass [8, 27] | Plant response rating, Blackgrass [8, 28] | Plant response rating, Morningglory [9, 27] | Plant response rating, Wild Oat (wild oat (Avena fatua); [27]) | Plant response rating, Wild Oat (wild oat (Avena fatua); [28]) | Plant response rating, Surinam grass [10, 27] | Plant response rating, Velvetleaf ([14]; Preemergence, Rate 500 g/ha) | Plant response rating, Velvetleaf ([14]; preemergence, Rate 125 g/ha) | Plant response rating, Corn (corn (Zea mays) [17]; preemergence, Rate 125 g/ha) | Plant response rating, Rice (rice (Oryza saliva) [19]; Preemergence, Rate 500 g/ha) | Plant response rating, Rice (rice (Oryza saliva) [19]; preemergence, Rate 125 g/ha) | Plant response rating, Morningglory ([20]; Preemergence, Rate 500 g/ha) | Plant response rating, Morningglory ([20]; preemergence, Rate 125 g/ha) | Plant response rating, Cocklebur ([22]; Preemergence, Rate 500 g/ha) | Plant response rating, Cocklebur ([22]; preemergence, Rate 125 g/ha)
70: Plant response rating, Barnyardgrass [13, 27]
60: Rice plant response rating (rice (Oryza saliva) [1]; Flooded Paddy, Rate 500 g/ha) | Plant response rating, Crabgrass [5, 27]
40: Plant response rating, Morningglory [9, 28] | Plant response rating, Cocklebur [11, 28]
20: Plant response rating, Rice (rice (Oryza saliva) [1]; [26]) | Plant response rating (scale 0 to 100), Rice (rice (Oryza saliva) [1]; flooded paddy test, Rate 16 g/ha, visually evaluated after 12 to 14 days, 0 = no effect, 100 = complete control) | Plant response rating (scale 0 to 100), Rice (rice (Oryza saliva) [1]; flooded paddy test, under head Rate 16 g/ha, (own rate not given), after 12 to 14 days) | Plant response rating, Foxtail, Giant [7, 27] | Plant response rating, Cocklebur [11, 27] | Plant response rating, Corn (corn (Zea mays) [17]; Preemergence, Rate 500 g/ha) | Plant response rating, Surinam grass ([21]; preemergence, Rate 125 g/ha) | Plant response rating, Barnyardgrass ([24]; preemergence, Rate 125 g/ha)
30: Rice plant response rating (rice (Oryza saliva) [1]; Flooded Paddy, Rate 250 g/ha)
80: Plant response rating, Foxtail, Giant [7, 28] | Plant response rating, Pigweed [12, 27] | Plant response rating, Surinam grass ([21]; Preemergence, Rate 500 g/ha)
100: Plant response rating, Lambsquarters [4, 28] | Plant response rating, Pigweed [12, 28] | Plant response rating, Barnyardgrass [13, 28] | Plant response rating, Lambsquarters ([15]; Preemergence, Rate 500 g/ha) | Plant response rating, Lambsquarters ([15]; preemergence, Rate 125 g/ha) | Plant response rating, Crabgrass ([16]; Preemergence, Rate 500 g/ha) | Plant response rating, Crabgrass ([16]; preemergence, Rate 125 g/ha) | Plant response rating, Foxtail, Giant ([18]; Preemergence, Rate 500 g/ha) | Plant response rating, Pigweed ([23]; Preemergence, Rate 500 g/ha) | Plant response rating, Pigweed ([23]; preemergence, Rate 125 g/ha) | Plant response rating, Barnyardgrass ([24]; Preemergence, Rate 500 g/ha)
90: Plant response rating, Lambsquarters [4, 27] | Plant response rating, Crabgrass [5, 28] | Plant response rating, Foxtail, Giant ([18]; preemergence, Rate 125 g/ha)
50: Plant response rating, Corn (corn (Zea mays) [6]; [28]) | Plant response rating, Surinam grass [10, 28]
